From ChEMBL document CHEMBL1697731, “Cheminformatics analysis of assertions mined from literature that describe drug-induced liver injury in different species” (Chem Res Toxicol, 2010)

Legend:
[1] = tested on: Hepatotoxicity; experiment: Literature-mined compound from Fourches et al multi-species drug-induced liver injury (DILI) dataset, effect in non-rodents
[2] = tested on: Hepatotoxicity; experiment: Literature-mined compound from Fourches et al multi-species drug-induced liver injury (DILI) dataset, effect in rodents; settings: rodentia
[3] = tested on: Hepatotoxicity; experiment: Literature-mined compound from Fourches et al multi-species drug-induced liver injury (DILI) dataset, effect in humans; settings: human

Molecule | Hepatotoxicity [1] | Hepatotoxicity [2] | Hepatotoxicity [3] | Hepatotoxicity ([1]; Liver) | Hepatotoxicity ([2]; Liver) | Hepatotoxicity ([3]; Liver)
O=C(NC(Cc1cc(=O)[nH]c2ccccc12)C(=O)O)c1ccc(Cl)cc1 (configuration not stated) [REBAMIPIDE] | no drug-induced liver injury reported | drug-induced liver injury reported | no drug-induced liver injury reported |  |  | 
Cn1nnc2c(C(N)=O)ncn2c1=O [TEMOZOLOMIDE] | no drug-induced liver injury reported | no drug-induced liver injury reported | drug-induced liver injury reported |  |  | 
CCC(=O)O[C@@H](O[P@](=O)(CCCCc1ccccc1)CC(=O)N1C[C@H](C2CCCCC2)C[C@H]1C(=O)O)C(C)C [FOSINOPRIL] | no drug-induced liver injury reported | no drug-induced liver injury reported | drug-induced liver injury reported |  |  | 
C[C@@H](O)[C@H]1C(=O)N2C(C(=O)O)=C(S[C@@H]3CN[C@H](C(=O)N(C)C)C3)[C@H](C)[C@H]12 [MEROPENEM] | no drug-induced liver injury reported | no drug-induced liver injury reported | drug-induced liver injury reported |  |  | 
COCCCC/C(=N\OCCN)c1ccc(C(F)(F)F)cc1 [FLUVOXAMINE] | no drug-induced liver injury reported | drug-induced liver injury reported | drug-induced liver injury reported |  |  | 
CCn1cc(C(=O)O)c(=O)c2cc(F)c(N3CCNCC3)nc21 [ENOXACIN] | no drug-induced liver injury reported | drug-induced liver injury reported | drug-induced liver injury reported |  |  | 
CNCC[C@@H](Oc1ccccc1C)c1ccccc1.Cl [ATOMOXETINE HYDROCHLORIDE] | no drug-induced liver injury reported | no drug-induced liver injury reported | drug-induced liver injury reported |  |  | 
CN[C@@H](C)[C@H](O)c1ccccc1 [EPHEDRINE] | no drug-induced liver injury reported | no drug-induced liver injury reported | drug-induced liver injury reported |  |  | 
VITAMIN E | drug-induced liver injury reported | drug-induced liver injury reported | drug-induced liver injury reported |  |  | 
CCOC(=O)[C@H](CCc1ccccc1)N[C@@H](C)C(=O)N1CCC[C@H]1C(=O)O | no drug-induced liver injury reported | drug-induced liver injury reported | drug-induced liver injury reported |  |  | 
O=C(CC1NCCCC1O)Cn1cnc2cc(Br)c(Cl)cc2c1=O (configuration not stated) [HALOFUGINONE] | no drug-induced liver injury reported | drug-induced liver injury reported | drug-induced liver injury reported |  |  | 
O=C(O)c1cc(-c2ccccc2)nc2ccccc12 [CINCHOPHEN] | drug-induced liver injury reported | no drug-induced liver injury reported | drug-induced liver injury reported |  |  | 
COc1c(C)c2c(c(O)c1C/C=C(\C)CCC(=O)O)C(=O)OC2 [MYCOPHENOLIC ACID] | no drug-induced liver injury reported | drug-induced liver injury reported | drug-induced liver injury reported |  |  | 
Cc1oc(-c2ccccc2)nc1CCOc1ccc(CC2C(=O)NOC2=O)cc1 (configuration not stated) [REGLITAZAR] | no drug-induced liver injury reported | drug-induced liver injury reported | no drug-induced liver injury reported |  |  | 
Cc1ccc(C(=O)C(C)CN2CCCCC2)cc1 (configuration not stated) [TOLPERISONE] | no drug-induced liver injury reported | no drug-induced liver injury reported | drug-induced liver injury reported |  |  | 
CCC(=O)C(CC(C)N(C)C)(c1ccccc1)c1ccccc1 (configuration not stated) [METHADONE] | no drug-induced liver injury reported | drug-induced liver injury reported | drug-induced liver injury reported |  |  | 
CSC[C@H]1C(=O)SC[C@@H](NC(=O)c2nc3ccccc3cc2O)C(=O)NCC(=O)N(C)[C@H]2SSC[C@@H](C(=O)N1C)N(C)C(=O)CNC(=O)[C@H](NC(=O)c1nc3ccccc3cc1O)CSC(=O)[C@H](CSC)N(C)C2=O [THIOCORALINE] | no drug-induced liver injury reported | no drug-induced liver injury reported | drug-induced liver injury reported |  |  | 
CC1=C(C(=O)O)N2C(=O)[C@@H](NC(=O)[C@H](N)c3ccc(O)cc3)[C@H]2SC1 [CEFADROXIL] | no drug-induced liver injury reported | no drug-induced liver injury reported | drug-induced liver injury reported |  |  | 
NCCCC[C@H](N[C@@H](CCc1ccccc1)C(=O)O)C(=O)N1CCC[C@H]1C(=O)O [LISINOPRIL ANHYDROUS] | no drug-induced liver injury reported | drug-induced liver injury reported | drug-induced liver injury reported |  |  | 
LECITHIN | no drug-induced liver injury reported | drug-induced liver injury reported | drug-induced liver injury reported |  |  | 

Molecule | Hepatotoxicity [1] | Hepatotoxicity [2] | Hepatotoxicity [3] | Hepatotoxicity ([1]; Liver) | Hepatotoxicity ([2]; Liver) | Hepatotoxicity ([3]; Liver)
Cn1c(=O)c2[nH]cnc2n(C)c1=O.O [THEOPHYLLINE] | drug-induced liver injury reported | drug-induced liver injury reported | drug-induced liver injury reported |  |  | 
O=c1ccn([C@@H]2O[C@H](CO)[C@@H](O)[C@H]2O)c(=O)[nH]1 [URIDINE] | no drug-induced liver injury reported | drug-induced liver injury reported | drug-induced liver injury reported |  |  | 
N[C@H]1C(O)O[C@H](CO)[C@@H](O)[C@@H]1O (some centres not stated) [GLUCOSAMINE] | no drug-induced liver injury reported | drug-induced liver injury reported | no drug-induced liver injury reported |  |  | 
NC(=O)NO [HYDROXYUREA] | no drug-induced liver injury reported | drug-induced liver injury reported | drug-induced liver injury reported |  |  | 
CC1CC(OC(=O)C(O)c2ccccc2)CC(C)(C)C1 (configuration not stated) [CYCLANDELATE] | no drug-induced liver injury reported | drug-induced liver injury reported | no drug-induced liver injury reported |  |  | 
CCOC(=O)CC(SP(=S)(OC)OC)C(=O)OCC (configuration not stated) [MALATHION] | no drug-induced liver injury reported | drug-induced liver injury reported | no drug-induced liver injury reported |  |  | 
CCC(C)n1ncn(-c2ccc(N3CCN(c4ccc(OCC5COC(Cn6cncn6)(c6ccc(Cl)cc6Cl)O5)cc4)CC3)cc2)c1=O (configuration not stated) [ITRACONAZOLE] | no drug-induced liver injury reported | drug-induced liver injury reported | drug-induced liver injury reported |  |  | 
NC(=O)C[S+]([O-])C(c1ccccc1)c1ccccc1 (configuration not stated) [MODAFINIL] | no drug-induced liver injury reported | no drug-induced liver injury reported | drug-induced liver injury reported |  |  | 
NC[C@H](O)c1ccc(O)c(O)c1 [NOREPINEPHRINE] | drug-induced liver injury reported | drug-induced liver injury reported | drug-induced liver injury reported |  |  | 
Oc1ccc(O)cc1 [HYDROQUINONE] |  |  |  | no drug-induced liver injury reported | drug-induced liver injury reported | drug-induced liver injury reported
CNC(=O)[C@@H](NC(=O)[C@H](CC(C)C)[C@H](O)C(=O)NO)C(C)(C)C | no drug-induced liver injury reported | drug-induced liver injury reported | no drug-induced liver injury reported |  |  | 
CC1(C)[C@H](C(=O)O)N2C(=O)C[C@H]2S1(=O)=O [SULBACTAM] | no drug-induced liver injury reported | no drug-induced liver injury reported | drug-induced liver injury reported |  |  | 
CCCC1O[C@@H]2C[C@H]3[C@@H]4CCC5=CC(=O)C=C[C@]5(C)[C@H]4[C@@H](O)C[C@]3(C)[C@]2(C(=O)CO)O1 (some centres not stated) [BUDESONIDE] | no drug-induced liver injury reported | drug-induced liver injury reported | drug-induced liver injury reported |  |  | 
CCn1cc(C(=O)O)c(=O)c2cc(F)c(N3CCNCC3)cc21 [NORFLOXACIN] |  |  |  | no drug-induced liver injury reported | drug-induced liver injury reported | drug-induced liver injury reported
CSc1ccc(C(=O)c2[nH]c(=O)[nH]c2C)cc1 [ENOXIMONE] | no drug-induced liver injury reported | drug-induced liver injury reported | no drug-induced liver injury reported |  |  | 
Cc1ncc([N+](=O)[O-])n1CCO [METRONIDAZOLE] | no drug-induced liver injury reported | drug-induced liver injury reported | drug-induced liver injury reported |  |  | 
CCC(c1ccccc1)c1c(O)c2ccccc2oc1=O (configuration not stated) [PHENPROCOUMON] | no drug-induced liver injury reported | no drug-induced liver injury reported | drug-induced liver injury reported |  |  | 
Cc1ccc(C(C)C)cc2c(C)ccc1-2 [GUAIAZULEN] | no drug-induced liver injury reported | drug-induced liver injury reported | no drug-induced liver injury reported |  |  | 
O=S(=O)([O-])CCS.[Na+] [MESNA] | no drug-induced liver injury reported | drug-induced liver injury reported | no drug-induced liver injury reported |  |  | 
